In patent publication US20100144809A1, “NOVEL BENZAMIDINE DERIVATIVES USEFUL AS POTASSIUM CHANNEL MODULATORS” (Neuro Search A/S, priority 2007, published 2010):

Target: T1, human BK channels (Homo sapiens, UniProt Q12791)
T1 construct: expressed in transfected cells; host or cells: Xenopus oocytes
Assay: Electrophysiological determination of BK current, two-electrode voltage clamp in Xenopus oocytes
Assay type: cell-based
Settings: 30 μM; increase of BK current relative to the basal current; Xenopus oocytes expressing human BK channels
Description: In this experiment we investigated the influence of the compounds of the invention on the membrane currents when determined electrophysiologically on Xenopus Oocytes capable of expressing human BK channels, and the current through the channels is recorded using the classical two-electrode voltage clamp technique.
The results of these determinations are presented in Table 1 below, and presented as the increase of BK current relative to the basal current.

T1 sequence (Q12791 whole entry): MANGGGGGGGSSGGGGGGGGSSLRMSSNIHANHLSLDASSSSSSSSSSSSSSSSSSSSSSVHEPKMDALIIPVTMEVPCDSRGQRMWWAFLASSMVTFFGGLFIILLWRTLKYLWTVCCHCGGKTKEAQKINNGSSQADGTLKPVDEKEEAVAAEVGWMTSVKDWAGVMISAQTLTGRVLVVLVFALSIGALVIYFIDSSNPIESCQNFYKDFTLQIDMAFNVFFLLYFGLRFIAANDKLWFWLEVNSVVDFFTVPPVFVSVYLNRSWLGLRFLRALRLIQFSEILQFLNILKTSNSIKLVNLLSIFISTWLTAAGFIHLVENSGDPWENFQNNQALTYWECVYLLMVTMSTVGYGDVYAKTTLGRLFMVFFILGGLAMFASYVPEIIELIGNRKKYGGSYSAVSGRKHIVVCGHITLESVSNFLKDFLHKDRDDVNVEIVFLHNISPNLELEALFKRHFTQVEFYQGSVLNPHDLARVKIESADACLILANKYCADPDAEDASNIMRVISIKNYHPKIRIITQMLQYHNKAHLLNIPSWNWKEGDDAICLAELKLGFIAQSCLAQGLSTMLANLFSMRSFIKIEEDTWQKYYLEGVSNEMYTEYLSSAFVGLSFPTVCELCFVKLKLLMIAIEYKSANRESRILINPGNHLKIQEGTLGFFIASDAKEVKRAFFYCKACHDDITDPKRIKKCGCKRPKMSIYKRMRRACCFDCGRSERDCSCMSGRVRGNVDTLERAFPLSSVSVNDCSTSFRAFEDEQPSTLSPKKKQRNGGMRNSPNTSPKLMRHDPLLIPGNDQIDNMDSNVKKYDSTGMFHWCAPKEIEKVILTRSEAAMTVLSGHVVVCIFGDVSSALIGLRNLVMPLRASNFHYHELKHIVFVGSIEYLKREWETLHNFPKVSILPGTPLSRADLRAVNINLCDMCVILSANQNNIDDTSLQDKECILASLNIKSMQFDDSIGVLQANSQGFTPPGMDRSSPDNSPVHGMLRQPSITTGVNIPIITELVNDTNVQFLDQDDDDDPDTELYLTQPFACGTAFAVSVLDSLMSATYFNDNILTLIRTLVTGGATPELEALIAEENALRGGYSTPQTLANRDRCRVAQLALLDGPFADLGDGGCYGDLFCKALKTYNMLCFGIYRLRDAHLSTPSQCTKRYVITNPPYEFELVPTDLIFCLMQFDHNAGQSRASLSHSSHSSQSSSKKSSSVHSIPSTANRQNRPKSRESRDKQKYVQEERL

| SMILES | Relative Increase of BK Current |
| --- | --- |
| NNC(=Nc1ccc(-c2ccc(C(F)(F)F)cc2)cc1-c1nnn[nH]1)c1cc(C(F)(F)F)cc(C(F)(F)F)c1 [Compound 1, N-Amino-N′-[3-(1H-tetrazol-5-yl)-4′-trifluoromethyl-biphenyl-4-yl]-3,5-bis-trifluoromethyl-benzamidine] | 1118% |
| O=c1[nH]nc(-c2cc(C(F)(F)F)cc(C(F)(F)F)c2)n1-c1ccc(-c2ccc(C(F)(F)F)cc2)cc1-c1nn[nH]n1 [Compound 2, 5-(3,5-Bis-trifluoromethyl-phenyl)-4-[3-(2H-tetrazol-5-yl)-4′-trifluoromethyl-biphenyl-4-yl]-2,4-dihydro-[1,2,4]triazol-3-one] | 252% |
| ONC(=Nc1ccc(-c2ccc(C(F)(F)F)cc2)cc1-c1nnn[nH]1)c1cc(C(F)(F)F)cc(C(F)(F)F)c1 [Compound 3, N-Hydroxy-N′-[3-(1H-tetrazol-5-yl)-4′-trifluoromethyl-biphenyl-4-yl]-3,5-bis-trifluoromethyl-benzamidine] | 1342% |
